Measurements taken from PubChem BioAssay AID1963975 (Molecular Pharmacology Branch, DTP, NCI, 2024).
Values joined by “and” are separate entries in the source; they are usually repeats but may differ in a detail not shown here. Equal entries are not always repeated.

Tested on: 624824-186-R-J2-PDC multicell spheroids, viability
Assay: Anticancer human tumor 624824-186-R-J2-PDC patient-derived colon adenocarcinoma cell line growth inhibition [PI3K]
Settings: for viability, T/C: stronger effect = lower value
Excerpt: Combinatorial screen of targeted agents with the PI3K inhibitors inavolisib, alpelisib, duvelisib, and copanlisib in multi-cell type tumor spheroids
A high-throughput screen of multi-cell type tumor spheroids was designed to identify active combinations of targeted small molecules and PI3K pathway inhibitors. Complex spheroids include a stromal component modeled by human endothelial cells (HUVEC) and fibroblasts modeled by human mesenchymal stem cells (MSCs). The concentration ranges selected for each drug and investigational agent were based upon clinically achievable concentrations if the clinical Cmax of the agent was known.
Compounds. The drugs and investigational agents: inavolisib (NSC800729), alpelisib (NSC765974), duvelisib (NSC772469), copanlisib (NSC816437), ipatasertib (NSC767898), afuresertib (NSC778305), talazoparib (NSC767125), sapanisertib (NSC764658), selumetinib (NSC741078), tovorafenib (DAY101, NSC766906), vemurafenib (NSC761431), ravoxertinib (NSC781343), sotorasib (NSC818433), MRTX1133 (NSC 836407), abemaciclib (NSC 768073), palbociclib (NSC758247), venetoclax (NSC 766270), SY5609 (NSC837396), enzalutamide (NSC755605), and darolutamide (NSC825331), were obtained from the National Cancer Institute (NCI) Developmental Therapeutics Program Chemical Repository. The FDA-approved anticancer drug set is available from the NCI Developmental Therapeutics Program. […] The stock solutions were prepared in dimethyl sulfoxide (DMSO, Sigma-Aldrich, St. Louis, MO, cat. D2650) at 800-fold the tested concentration and stored at -70 degrees C prior to their use. All drugs and investigational agents were tested over a range starting from a high concentration at or near the clinical Cmax and decreasing in half-log increments. If the clinical Cmax for an agent had not been determined, the highest concentration tested was 10 microM.
Cell Culture. All cells were maintained in an incubator at 37 degrees C and 5% CO2 with 95% humidity. The PDC lines were cultured according to standard operating procedures established by the NCI PDMR (https://pdmr.cancer.gov/sops/default.htm). All PDCs were thawed and cultured in Matrigel-coated flasks prepared with a working solution of 1X Ham's F-12 nutrient mix, without supplementation (Invitrogen, Waltham, MA, cat. 11765054), 100 U/mL penicillin-streptomycin (Invitrogen, cat. 15140122), and 2.5% Matrigel (Corning Inc., Corning, NY, cat. 354248) for the first three passages. The 354836-022-R-J1-PDC, 475296-252-R-J1-PDC, and 997726-040-R-J2-PDC lines were cultured in 6A media, which includes advanced DMEM/F-12 (Thermo Fisher Scientific, cat. 12634028), 10 mM HEPES (Thermo Fisher Scientific, cat. 15630080), 1X GlutaMAX supplement (Thermo Fisher Scientific, cat. 35050061), 0.1 mg/mL primocin (InvivoGen, San Diego, CA, cat. ant-pm-2), 10% defined fetal bovine serum, heat inactivated (HyClone Laboratories Inc., Logan, UT, cat. SH30070.03HI), 50% L-WRN conditioned media (ATCC, cat. CRL-3276), 1.25 mM N-Acetyl-L-cysteine (Sigma-Aldrich, cat. A9165), 10 mM nicotinamide (Sigma-Aldrich, cat. N0636), 1X B-27 supplement (Thermo Fisher Scientific, cat. 17504044), 1X N-2 supplement (Thermo Fisher Scientific, cat. 17502048), and 10 microM Y-27632 dihydrochloride (Tocris Bioscience, Bristol, United Kingdom, cat. 1254). The 624824-186-R-J2-PDC line was cultured in 6C/Colon 1B media, which includes all 6A media components plus 50 ng/mL human EGF recombinant protein (Thermo Fisher Scientific, cat. PHG0311). […]

[1] = compound alone, run of 06/12/2023
[2] = compound alone, run of 06/13/2023
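Also: spheroids exposed to agents for 7 days before viability read.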
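For viability, T/C in this document: 100% = DMSO vehicle treated spheroids.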

Row | Structure (SMILES) | IC50 (curve of compound) | viability, T/C (compound 0.0316 µM) | viability, T/C (compound 0.316 µM) | viability, T/C (compound 3.16 µM) | viability, T/C (compound 10 µM) | viability, T/C (compound 0.1 µM) | viability, T/C (compound 1 µM) | other results
1 | C#Cc1c(F)ccc2cc(O)cc(-c3ncc4c(N5CC6CCC(C5)N6)nc(OCC56CCCN5CC(F)C6)nc4c3F)c12 (configuration not stated) | > 10 µM | 94.5% [middle of 4 runs] | 97% [middle of 4 runs] | 84.7% [middle of 4 runs] | 86.3% [middle of 4 runs] | – | – | –
2 | C=CC(=O)N1CCN(c2nc(=O)n(-c3c(C)ccnc3C(C)C)c3nc(-c4c(O)cccc4F)c(F)cc23)C(C)C1 (configuration not stated) | > 10 µM | – | 82.1% [middle of 4 runs] | – | 100% [middle of 4 runs] | 82% [middle of 4 runs] | 99.7% [middle of 4 runs] | –
3 | CC(=O)c1c(C)c2cnc(Nc3ccc(N4CCNCC4)cn3)nc2n(C2CCCC2)c1=O | > 0.1 µM | – | – | – | – | 87.5% [middle of 4 runs] | – | viability, T/C (compound 0.00316 µM): 93.5% [middle of 4 runs]
4 | CC(C)NCC(C(=O)N1CCN(c2ncnc3c2C(C)CC3O)CC1)c1ccc(Cl)cc1 (configuration not stated) | > 10 µM | – | 84.4% [middle of 4 runs] | 88.5% [middle of 4 runs] | 85.7% [middle of 4 runs] | 92.5% [middle of 4 runs] | – | –
5 | CC(Cn1ccc(-c2ccc(C#N)c(Cl)c2)n1)NC(=O)c1cc(C(C)O)[nH]n1 (configuration not stated) | > 10 µM | 91.5% [middle of 4 runs] | 89.7% [middle of 4 runs] | 101% [middle of 4 runs] | 106% [middle of 4 runs] | – | 92.9% [middle of 4 runs] | –
6 | CC(Nc1ccc2c(c1)OCCn1cc(N3C(=O)OCC3C(F)F)nc1-2)C(N)=O (configuration not stated) | – | 84.8% [middle of 8 runs] | 89.7% [middle of 8 runs] | – | – | 90.3% [middle of 8 runs] | 95.2% [middle of 8 runs] | viability, T/C (compound 0.01 µM): 95% [middle of 8 runs]; IC50 [1]: > 1 µM
7 | CC(Nc1ncnc2nc[nH]c12)c1cc2cccc(Cl)c2c(=O)n1-c1ccccc1 (configuration not stated) | – | – | 91.6% [middle of 8 runs] | – | – | – | 91.4% [middle of 8 runs] | IC50 [2]: > 10 µM
8 | CC1(C)CCC(Nc2ncc(C(F)(F)F)c(-c3c[nH]c4c(P(C)(C)=O)c(C#N)ccc34)n2)CN1 (configuration not stated) | 4.11 µM [middle of 4 runs] | – | 102% [middle of 4 runs] | 62.5% [middle of 4 runs] | 7.89% [middle of 4 runs] | 76.4% [middle of 4 runs] | 104% [middle of 4 runs] | –
9 | CCCS(=O)(=O)Nc1ccc(F)c(C(=O)c2c[nH]c3ncc(-c4ccc(Cl)cc4)cc23)c1F | 9.53 µM and > 10 µM and 9.39 µM | 90.4% [middle of 4 runs] | 88% [middle of 4 runs] | 122% [middle of 4 runs] | 52.3% [middle of 4 runs] | 90.6% [middle of 4 runs] | – | –
10 | CNC(=O)c1ccc(N2C(=S)N(c3ccc(C#N)c(C(F)(F)F)c3)C(=O)C2(C)C)cc1F | > 10 µM | – | – | – | – | – | – | –
11 | COc1c(OCCCN2CCOCC2)ccc2c3n(c(=NC(=O)c4cnc(N)nc4)nc12)CCN3 | – | 88.2% [middle of 8 runs] | 67.3% [middle of 8 runs] | – | – | 75.5% [middle of 8 runs] | 65.1% [middle of 8 runs] | viability, T/C (compound 0.01 µM): 91.7% [middle of 8 runs]; IC50 [2]: > 1 µM
12 | Cc1nc(NC(=O)N2CCCC2C(N)=O)sc1-c1ccnc(C(C)(C)C(F)(F)F)c1 (configuration not stated) | – | – | – | – | 80.8% [middle of 8 runs] | 83.4% [middle of 8 runs] | – | IC50 [1]: > 10 µM
13 | Cn1cnc2c(F)c(Nc3ccc(Br)cc3Cl)c(C(=O)NOCCO)cc21 | > 3 µM | – | – | – | – | – | – | viability, T/C (compound 0.00949 µM): 85.4% [middle of 4 runs]; viability, T/C (compound 0.949 µM): 79.5% [middle of 4 runs]
14 | Cn1nccc1Nc1nccc(-c2ccn(C(CO)c3ccc(Cl)c(F)c3)c(=O)c2)n1 (configuration not stated) | > 10 µM | 88.9% [middle of 4 runs] | 72.8% [middle of 4 runs] | 91.2% [middle of 4 runs] | – | – | 94% [middle of 4 runs] | –

More lines, main results first:

Row | IC50 (curve of compound) | Structure (SMILES) | viability, T/C (compound 0.0316 µM) | viability, T/C (compound 0.316 µM) | viability, T/C (compound 3.16 µM) | viability, T/C (compound 10 µM) | viability, T/C (compound 0.1 µM) | viability, T/C (compound 1 µM) | other results
15 | > 0.1 µM | CC(C)n1nc(-c2ccc3oc(N)nc3c2)c2c(N)ncnc21 | 76.4% [middle of 4 runs] | – | – | – | 79.5% [middle of 4 runs] | – | viability, T/C (compound 0.00316 µM): 79.1% [middle of 4 runs]; viability, T/C (compound 0.01 µM): 82.6% [middle of 4 runs]
16 | > 10 µM | CC1(C)CCC(CN2CCN(c3ccc(C(=O)NS(=O)(=O)c4ccc(NCC5CCOCC5)c([N+](=O)[O-])c4)c(Oc4cnc5[nH]ccc5c4)c3)CC2)=C(c2ccc(Cl)cc2)C1 | – | 80.4% [middle of 4 runs] | 67% [middle of 4 runs] | 72.2% [middle of 4 runs] | 78.7% (2×) and 107% and 95.2% | – | –
17 | > 1 µM | CCN1CCN(Cc2ccc(Nc3ncc(F)c(-c4cc(F)c5nc(C)n(C(C)C)c5c4)n3)nc2)CC1 | 86.1% [middle of 4 runs] | 93.5% [middle of 4 runs] | – | – | 93.7% [middle of 4 runs] | 102% [middle of 4 runs] | –
18 | > 10 µM | C[C@@H](NC(=O)c1ncnc(N)c1Cl)c1ncc(C(=O)Nc2cc(C(F)(F)F)c(Cl)cn2)s1 | – | – | 68% [middle of 4 runs] | – | – | 81.6% [middle of 4 runs] | –
19 | > 10 µM | Cn1ncc(Cl)c1-c1cc(C(=O)NC(CN)Cc2cccc(F)c2)sc1Cl (configuration not stated) | – | 74.5% [middle of 4 runs] | 68.2% [middle of 4 runs] | 59.2% [middle of 4 runs] | 79.8% [middle of 4 runs] | 89.4% [middle of 4 runs] | –
20 | > 0.1 µM | Cn1ncnc1[C@H]1c2n[nH]c(=O)c3cc(F)cc(c23)N[C@@H]1c1ccc(F)cc1 | 103% [middle of 4 runs] | – | – | – | 89.3% [middle of 4 runs] | – | viability, T/C (compound 0.000316 µM): 99.1% [middle of 4 runs]; viability, T/C (compound 0.00316 µM): 90.5% [middle of 4 runs]
